Source: PMC10384874, “The Expression of Antibacterial Peptide Turgencin A in Pichia pastoris and an Analysis of Its Antibacterial Activity” (Molecules, 2023)
No end group written: not given here.

Tests used:
E. coli ATCC10305 = assay: Minimum inhibitory concentration (MIC) determination; assay type: cell-based, Escherichia coli; details: E. coli (ATCC 10305); 96-well plate, LB, fermentation supernatant diluted to 1-6 μg·mL^−1; lowest peptide concentration with no bacterial growth; n = 3
Protocol: (§1) A single colony of the tested bacteria was picked to LB liquid medium and incubated at 37 °C until the OD600 reached about 1. This test bacteria solution was diluted 1000 times. The fermentation supernatant was serially diluted in a 96-well plate using replacement buffer to 1, 2, 3, 4, 5, and 6 μg·mL^−1 concentrations. Then, 20 μL of the diluted peptide and 100 μL of the test bacterium were added to each well. The negative control and positive control were […], respectively. The MIC value was defined as the lowest peptide concentration associated with no bacterial growth. In this study, the MIC values of Turgencin A were determined against S. aureus ATCC25923, Salmonella spp. ATCC10467, E. coli ATCC10305, E. Coli O157 ATCC35150, L. monocytogenes ATCC21633, and B. subtilis ATCC6633.

[1] = test system: Gram-positive and Gram-negative bacteria; assay: Agar well diffusion assay, inhibition profiling of six strains; assay type: cell-based; details: fermentation supernatant, 9 μg·mL^−1 rTurgencin A; B. subtilis, S. aureus, L. monocytogenes, Salmonella spp., E. coli O157, E. coli
Protocol: (§2) The test bacterial strain was seeded into an LB liquid medium and cultured at 37 °C until the OD600 value reached 1. In total, 50 μL of bacteria was mixed with the 15 mL molten LB medium (1% peptone, 1% NaCl, and 0.5% yeast extract) at 25 °C and allowed to solidify. Holes were punched with sterile gun heads. Subsequently, 50 μL of the fermentation supernatant was added to the holes. Gentamicin (Gen) at 50 µg·mL^−1 was used as the positive control. The antibacterial peptide SC3, which was not active in the laboratory, was used as the negative control.

S. aureus ATCC25923 [2] = assay: Protease stability, read out by agar well diffusion assay; assay type: in vitro ADME, Staphylococcus aureus; details: 2 h, 13.7 μg·mL^−1, inhibition circle against S. aureus ATCC25923, n = 3
Protocol: as §2
(§3) The rTurgencin A freeze-dried fermentation supernatant was dissolved in different buffers. The contents were all 200 mg·mL^−1. Therefore, the concentrations of rTurgencin A in this experiment were all 13.7 μg·mL^−1.
The rTurgencin A freeze-dried fermentation supernatant was dissolved in buffers of a glycine solution at a pH of 2, a PBS solution at a pH of 6, a Tris-HCl solution at a pH of 7, and a Tris-HCl solution at a pH of 8. The final concentrations of the buffer solution were all 100 mM. Pepsin was added to the solution at a pH of 2, papain at a pH of 6, proteinase K at a pH of 7, and trypsin at a pH of 8. The protease concentrations were all 1 mg·mL^−1. The mixtures of 0.24 U of different protease solutions and rTurgencin A were reacted at 37 °C for 2 h. The samples were then subjected to an agar well diffusion assay. Twelve hours later, the inhibition circle was observed. The negative control was different protease solutions.

[3] = Pork preservation experiment, flesh color; details: pork treated with rTurgencin A at 10 μg·mL^−1, stored at 4 °C; days 0, 2, 4, 6; control deteriorated on day 4
Protocol: (§4) The fermentation supernatant was passed through a 0.22 μm membrane filter and transferred to a beaker. Fresh pork hind leg meat was cut into 5 g pieces and placed in the above solution, soaked for 1 min in each direction, shaken so that the surface of the meat was fully exposed to the solution, removed, placed on cling film to drain, left for 5 min at room temperature, turned over, and left for another 5 min to remove excess water so that the meat neither dripped nor was too dry. The meat was then wrapped in plastic and stored in a refrigerator at 4 °C for seven days. During this period, the pork samples were tested for colony counts every 48 h, according to the method of GB 4789-2022 [42]. The colony count is expressed by colony-forming units (CFU), and a common logarithm determines the total number of colonies. SC3 served as the negative control.

[4] = test system: L. monocytogenes ATCC21633; assay: Agar well diffusion assay; assay type: cell-based, Listeria monocytogenes; details: 9 μg·mL^−1 rTurgencin A fermentation supernatant, 50 μL per well, against 50 μg·mL^−1 gentamicin
Protocol: as §2

S. aureus ATCC25923 [5] = assay: Stability in salt solutions, read out by agar well diffusion assay; assay type: physicochemical, Staphylococcus aureus; details: 5 mM MgCl2, 50 mM MgCl2, 50 mM KCl and 150 mM KCl; 13.7 μg·mL^−1; inhibition circle against S. aureus ATCC25923; n = 3
Protocol: as §2, §3
The rTurgencin A freeze-dried fermentation supernatant was dissolved in 5 mM MgCl2, 50 mM MgCl2, 50 mM KCl, and 150 mM KCl, respectively. Then, the samples were subjected to an agar well diffusion assay. Twelve hours later, the inhibition circle was observed. The negative control was the different salt solutions.

S. aureus ATCC25923 [6] = assay: Agar well diffusion assay; assay type: cell-based, Staphylococcus aureus; details: 9 μg·mL^−1 rTurgencin A fermentation supernatant, 50 μL per well, against 50 μg·mL^−1 gentamicin
Protocol: as §2

[7] = test system: L. monocytogenes ATCC21633; assay: Minimum inhibitory concentration (MIC) determination; assay type: cell-based, Listeria monocytogenes; details: L. monocytogenes (ATCC 21633); 96-well plate, LB, fermentation supernatant diluted to 1-6 μg·mL^−1; lowest peptide concentration with no bacterial growth; n = 3
Protocol: as §1

[8] = test system: Salmonella spp. ATCC10467; assay: as above; assay type: cell-based; details: Salmonella spp. (ATCC 10467); 96-well plate, LB, fermentation supernatant diluted to 1-6 μg·mL^−1; lowest peptide concentration with no bacterial growth; n = 3
Protocol: as §1

S. aureus ATCC25923 [9] = assay: pH stability, read out by agar well diffusion assay; assay type: physicochemical, Staphylococcus aureus; details: 13.7 μg·mL^−1; 100 mM buffers pH 2, 4, 6, 8, 10; 37 °C, 4 h; inhibition circle against S. aureus ATCC25923 after 12 h; n = 3
Protocol: as §2, §3
The rTurgencin A freeze-dried fermentation supernatant was dissolved in a glycine solution at a pH of 2, a sodium acetate solution at a pH of 4, a Tris-HCl solution at a pH of 6, a Tris-HCl solution at a pH of 8, and a glycine solution at a pH of 10. The final concentrations of the buffer solution were all 100 mM. Then, the samples were treated at 37 °C for 4 h and subjected to the agar well diffusion assay. Twelve hours later, the inhibition circle was observed. The negative control was a buffer solution of different pHs.

S. aureus ATCC25923 [10] = assay: Temperature stability, read out by agar well diffusion assay; assay type: physicochemical, Staphylococcus aureus; details: 13.7 μg·mL^−1 in 50 mM pH 7.4 Tris-HCl, inhibition circle against S. aureus ATCC25923 after 12 h, n = 3
Protocol: as §2, §3
The rTurgencin A freeze-dried fermentation supernatant was dissolved in a 50 mM pH 7.4 Tris-HCl solution and then treated at 4 °C, 25 °C, 37 °C, 65 °C, and 90 °C for 1 h. The samples were subjected to an agar well diffusion assay. Twelve hours later, the inhibition circle was observed. The negative control was a 50 mM pH 7.4 Tris-HCl solution after treatment for 1 h at the same temperature.

B. subtilis ATCC6633 = assay: Minimum inhibitory concentration (MIC) determination; assay type: cell-based, Bacillus subtilis; details: B. subtilis (ATCC 6633); 96-well plate, LB, fermentation supernatant diluted to 1-6 μg·mL^−1; lowest peptide concentration with no bacterial growth; n = 3
Protocol: as §1

S. aureus ATCC25923 [11] = assay: Total nucleotide leakage; assay type: cell-based, Staphylococcus aureus; details: positive control 0.1% Triton X-100, 4 h
Protocol: The total nucleotide leakage associated with the peptide activity was analyzed according to the protocol described by Shwaiki et al.. We detected the total nucleotide leakage of the effect of Turgencin A on the cell membrane of S. aureus ATCC25923. The OD of each concentration was measured at 260 nm after four hours of contact reaction. The positive and negative controls were 0.1% Triton X-100 and water, respectively.

S. aureus ATCC25923 [12] = assay: Minimum inhibitory concentration (MIC) determination; assay type: cell-based, Staphylococcus aureus; details: S. aureus (ATCC 25923); 96-well plate, LB, fermentation supernatant diluted to 1-6 μg·mL^−1; lowest peptide concentration with no bacterial growth; n = 3
Protocol: as §1

E. coli O157 ATCC35150 = assay: as above; assay type: cell-based, Escherichia coli O157; details: E. coli O157 (ATCC 35150); 96-well plate, LB, fermentation supernatant diluted to 1-6 μg·mL^−1; lowest peptide concentration with no bacterial growth; n = 3
Protocol: as §1

[13] = test system: total food spoilage bacteria in pork; assay: Pork preservation experiment, total number of bacteria; details: pork treated with rTurgencin A at 10 μg·mL^−1, stored at 4 °C; days 0, 1, 3, 5; control group increasing
Protocol: as §4, with “The meat was then wrapped in plastic and stored in a refrigerator at 4 °C for seven days. During this period, the pork samples were tested for colony counts every 48 h, according to the method of GB 4789-2022 [42].” left out

[14] = Antibacterial activity of the nickel column purified product; assay type: cell-based; details: nickel column purified product after dialysis of the replacement solution
Protocol: For the affinity purification with a nickel column, the Ni NTA Beads 6FF filler (Smart-Lifesciences, Changzhou, China) was added to the column, and the filler was rinsed twice with distilled water to remove ethanol, followed by two rinses with binding buffer (50 mM Tris-HCl pH = 7.9, 500 mM NaCl, and 10 mM Imidazole). The fermentation supernatant was treated with a 0.45 μm membrane filter, added to the nickel column, and combined with filler for 1 h in a low-speed shaker at 4 °C. The flow solution was collected and rinsed with binding buffer (50 mM Tris-HCl pH = 7.9, 500 mM NaCl, and 10 mM Imidazole) three times to wash off unbound proteins. Elution buffer (50 mM Tris-HCl pH = 7.9, 500 mM NaCl, and 1 M imidazole) was added and the eluent of the target protein was collected. Finally, the eluent was dialyzed in 0.01 M PBS for 12 h at a low temperature.

## GPKTKAACKMACKLATCGKKPGGWKCKLCELGCDAV (disulfide (positions not given here)) [rTurgencin A, His-tagged recombinant Turgencin A expressed in Pichia pastoris; tested as yeast fermentation supernatant, concentration by ELISA]
E. coli ATCC10305
  MIC: 5 µg/mL
[1]
  antibacterial activity (inhibition profiling): provided antibacterial activity against Gram-positive and Gram-negative bacteria
S. aureus ATCC25923 [2]; papain 1 mg·mL^−1 (0.24 U), 100 mM PBS pH 6, 37 °C
  stability in papain: good stability
S. aureus ATCC25923 [2]; pepsin 1 mg·mL^−1 (0.24 U), 100 mM glycine pH 2, 37 °C
  antibacterial activity remaining in the presence of pepsin: 70%
S. aureus ATCC25923 [2]; proteinase K 1 mg·mL^−1 (0.24 U), 100 mM Tris-HCl pH 7, 37 °C
  stability in k-protease: good stability
S. aureus ATCC25923 [2]; trypsin 1 mg·mL^−1 (0.24 U), 100 mM Tris-HCl pH 8, 37 °C
  stability in trypsin: good stability
[3]
  color of the pork flesh: still bright on the fourth day
[4]
  inhibition circle diameter compared with gentamicin: more significant than 50 μg·mL^−1 gentamicin
S. aureus ATCC25923 [5]
  antibacterial activity in salt solutions: not affected
S. aureus ATCC25923 [6]
  inhibition circle diameter compared with gentamicin: more significant than 50 μg·mL^−1 gentamicin
[7]
  MIC: 3 µg/mL
[8]
  MIC: 4 µg/mL
S. aureus ATCC25923 [9]
  reduction in inhibitory action at low pHs: 40%
  stability at neutral and high pH levels: good stability
S. aureus ATCC25923 [10]; 4 °C, 25 °C and 37 °C for 1 h
  stability at low and room temperatures: good stability
S. aureus ATCC25923 [10]; 90 °C for 1 h
  diameter of the inhibition circle as % of the maximum inhibition circle diameter: 55%
B. subtilis ATCC6633
  MIC: 2 µg/mL
S. aureus ATCC25923 [11]; 1 × MIC
  total nucleotide leakage relative to the positive control: 34.3%
S. aureus ATCC25923 [11]; 2 × MIC
  total nucleotide leakage relative to the positive control: 77.3%
S. aureus ATCC25923 [11]; 3 × MIC
  total nucleotide leakage relative to the positive control: 131.5%
S. aureus ATCC25923 [12]
  MIC: 3 µg/mL
E. coli O157 ATCC35150
  MIC: 5 µg/mL
[13]
  bacterial colonies in pork over storage days: showed a decreasing trend with an increase in days
[14]
  antibacterial activity of the purified product: deficient antibacterial activity
